# Publication PMC7464159, “Triple Negative Breast Cancer and Breast Epithelial Cells Differentially Reprogram Glucose and Lipid Metabolism upon Treatment with Triterpenic Acids” (Biomolecules, 2020)
# How the values were obtained:
# MDA-MB-231 cells [1] = assay: 1H NMR metabolomics of polar (aqueous) cell extracts; type: cell-based, human
# Protocol: MDA-MB-231 and MCF-10A cells were seeded in 10-cm-diameter Petri dishes at a density of 6 × 10^5 cells/mL (10 mL per dish) and cultured for 24 h at 37 °C. […] Vehicle solvent control cells received DMSO (0.10% v/v). Samples were collected immediately after 48 h incubation or, to assess cellular recovery, medium was replaced with fresh growth medium (without TAs), and cells were incubated for additional 24 h before collection (48 + 24 h samples). Four independent assays were performed.
# After incubation, culture medium was collected and centrifuged (1000× g, 5 min) and the supernatant stored at −80 °C until analysis. Culture medium without cells was placed under the same conditions and collected. Cell extraction was performed as described by Carrola et al.. Briefly, cells were washed four times with PBS and extracted with a mixture of methanol:chloroform:water (1:1:0.7). The resulting polar and organic phases were collected and then dried under vacuum or under a stream of nitrogen gas, respectively. All samples were stored at −80 °C and, at the time of analysis, dried polar extracts were reconstituted in 600 µL of deuterated phosphate buffer (100 mM, pH 7.4) containing 0.1 mM TSP-d4, while organic extracts were reconstituted in deuterated chloroform containing 0.03% TMS. Regarding medium samples, 540 μL were mixed with 60 μL of D2O containing 0.25% TSP-d4. Prior to analysis, 550 μL of each sample were transferred to 5 mm NMR tubes.
# ^1H NMR spectra of all samples were acquired on a Bruker Avance III HD 500 NMR spectrometer (University of Aveiro, Portuguese NMR Network) operating at 500.13 MHz for ^1H observation equipped with a 5 mm TXI probe. Standard 1D spectra (Bruker pulse programs ‘noesypr1d’, with water suppression, for medium samples and aqueous extracts, and ‘zg’ for organic extracts) were recorded with a 7002.8 Hz spectral width, 32 k data points, a 2 s relaxation delay and 512 scans. Spectral processing comprised exponential multiplication with 0.3 Hz line broadening, zero filling to 64 k data points, manual phasing, baseline correction, and chemical shift calibration to the TSP or TMS signal at 0 ppm. 2D ^1H-^1H total correlation (TOCSY) spectra, ^1H-^13C heteronuclear single quantum correlation (HSQC) spectra and J-resolved spectra were also registered for selected samples to assist spectral assignment. Metabolites were identified with the support of 2D spectra and the spectral reference databases BBIOREFCODE-2-0-0 (Bruker Biospin, Rheinstetten, Germany) and HMDB [28]. Selected signals were then integrated using the AmixViewer software […] (version 3.9.14, Bruker BioSpin, Rheinstetten, Germany) and normalized by the total spectral area. The magnitude of each metabolite change was assessed through the percentage of variation (and its respective error) in exposed samples relatively to controls, and through the effect size (ES) adjusted for small sample numbers (and respective standard error). Metabolite variations with absolute ES greater than 0.8 were expressed in a heatmap, colored as a function of the percentage of variation, employing the R statistical software.
# MDA-MB-231 cells [2] = system: MDA-MB-231 cells; parameters: method as in PMID 28213701; conditions: BA up to 20 µM, 24 h; cited from earlier work
smiles,measurement,setting,value
"C=C(C)[C@@H]1CC[C@]2(C(=O)O)CC[C@]3(C)[C@H](CC[C@@H]4[C@@]5(C)CC[C@H](O)C(C)(C)[C@@H]5CC[C@]43C)[C@@H]12 [BA, betulinic acid]",ATP %var,"MDA-MB-231 cells [1]; BA 5µM, 48h",0%
same,Acetate %var,"MDA-MB-231 cells [1]; BA 5µM, 48h",0%
same,Ala %var,"MDA-MB-231 cells [1]; BA 5µM, 48h",-12.64%
same,Asp %var,"MDA-MB-231 cells [1]; BA 5µM, 48h",-30.52%
same,Choline %var,"MDA-MB-231 cells [1]; BA 5µM, 48h",10.16%
same,Citrate %var,"MDA-MB-231 cells [1]; BA 5µM, 48h",-40.97%
same,Cr %var,"MDA-MB-231 cells [1]; BA 5µM, 48h",22.45%
same,Fumarate %var,"MDA-MB-231 cells [1]; BA 5µM, 48h",-35.42%
same,GPC %var,"MDA-MB-231 cells [1]; BA 5µM, 48h",13.50%
same,GSH %var,"MDA-MB-231 cells [1]; BA 5µM, 48h",-15.77%
same,Gln %var,"MDA-MB-231 cells [1]; BA 5µM, 48h",-28.49%
same,Glu %var,"MDA-MB-231 cells [1]; BA 5µM, 48h",-24.61%
same,Gly %var,"MDA-MB-231 cells [1]; BA 5µM, 48h",0%
same,Ile %var,"MDA-MB-231 cells [1]; BA 5µM, 48h",14.68%
same,Lactate %var,"MDA-MB-231 cells [1]; BA 5µM, 48h",53.08%
same,Leu %var,"MDA-MB-231 cells [1]; BA 5µM, 48h",15.91%
same,PC %var,"MDA-MB-231 cells [1]; BA 5µM, 48h",-24.96%
same,PCr %var,"MDA-MB-231 cells [1]; BA 5µM, 48h",-19.36%
same,Phe %var,"MDA-MB-231 cells [1]; BA 5µM, 48h",6.80%
same,Pro %var,"MDA-MB-231 cells [1]; BA 5µM, 48h",16.73%
same,Tau %var,"MDA-MB-231 cells [1]; BA 5µM, 48h",6.09%
same,Tyr %var,"MDA-MB-231 cells [1]; BA 5µM, 48h",8.11%
same,Val %var,"MDA-MB-231 cells [1]; BA 5µM, 48h",18.46%
same,myo-Ino %var,"MDA-MB-231 cells [1]; BA 5µM, 48h",-8.23%
same,ATP %var,"MDA-MB-231 cells [1]; BA 5µM, 48h+24h",-7.54%
same,Acetate %var,"MDA-MB-231 cells [1]; BA 5µM, 48h+24h",0%
same,Ala %var,"MDA-MB-231 cells [1]; BA 5µM, 48h+24h",-7.44%
same,Asp %var,"MDA-MB-231 cells [1]; BA 5µM, 48h+24h",0%
same,Choline %var,"MDA-MB-231 cells [1]; BA 5µM, 48h+24h",0%
same,Citrate %var,"MDA-MB-231 cells [1]; BA 5µM, 48h+24h",-12.45%
same,Cr %var,"MDA-MB-231 cells [1]; BA 5µM, 48h+24h",0%
same,Fumarate %var,"MDA-MB-231 cells [1]; BA 5µM, 48h+24h",0%
same,GPC %var,"MDA-MB-231 cells [1]; BA 5µM, 48h+24h",0%
same,GSH %var,"MDA-MB-231 cells [1]; BA 5µM, 48h+24h",0%
same,Gln %var,"MDA-MB-231 cells [1]; BA 5µM, 48h+24h",0%
same,Glu %var,"MDA-MB-231 cells [1]; BA 5µM, 48h+24h",0%
same,Gly %var,"MDA-MB-231 cells [1]; BA 5µM, 48h+24h",-8.57%
same,Ile %var,"MDA-MB-231 cells [1]; BA 5µM, 48h+24h",0%
same,Lactate %var,"MDA-MB-231 cells [1]; BA 5µM, 48h+24h",0%
same,Leu %var,"MDA-MB-231 cells [1]; BA 5µM, 48h+24h",0%
same,PC %var,"MDA-MB-231 cells [1]; BA 5µM, 48h+24h",0%
same,PCr %var,"MDA-MB-231 cells [1]; BA 5µM, 48h+24h",0%
same,Phe %var,"MDA-MB-231 cells [1]; BA 5µM, 48h+24h",0%
same,Pro %var,"MDA-MB-231 cells [1]; BA 5µM, 48h+24h",0%
same,Tau %var,"MDA-MB-231 cells [1]; BA 5µM, 48h+24h",0%
same,Tyr %var,"MDA-MB-231 cells [1]; BA 5µM, 48h+24h",0%
same,Val %var,"MDA-MB-231 cells [1]; BA 5µM, 48h+24h",0%
same,myo-Ino %var,"MDA-MB-231 cells [1]; BA 5µM, 48h+24h",-6.52%
same,ATP %var,"MDA-MB-231 cells [1]; BA 15µM, 48h",0%
same,Acetate %var,"MDA-MB-231 cells [1]; BA 15µM, 48h",21.07%
same,Ala %var,"MDA-MB-231 cells [1]; BA 15µM, 48h",-10.34%
same,Asp %var,"MDA-MB-231 cells [1]; BA 15µM, 48h",-12.45%
same,Choline %var,"MDA-MB-231 cells [1]; BA 15µM, 48h",12.46%
same,Citrate %var,"MDA-MB-231 cells [1]; BA 15µM, 48h",-51.74%
same,Cr %var,"MDA-MB-231 cells [1]; BA 15µM, 48h",18.99%
same,Fumarate %var,"MDA-MB-231 cells [1]; BA 15µM, 48h",-37.50%
same,GPC %var,"MDA-MB-231 cells [1]; BA 15µM, 48h",26.27%
same,GSH %var,"MDA-MB-231 cells [1]; BA 15µM, 48h",-25.87%
same,Gln %var,"MDA-MB-231 cells [1]; BA 15µM, 48h",-20.94%
same,Glu %var,"MDA-MB-231 cells [1]; BA 15µM, 48h",-37.41%
same,Gly %var,"MDA-MB-231 cells [1]; BA 15µM, 48h",-9.59%
same,Ile %var,"MDA-MB-231 cells [1]; BA 15µM, 48h",30.97%
same,Lactate %var,"MDA-MB-231 cells [1]; BA 15µM, 48h",55.73%
same,Leu %var,"MDA-MB-231 cells [1]; BA 15µM, 48h",33.86%
same,PC %var,"MDA-MB-231 cells [1]; BA 15µM, 48h",-38.62%
same,PCr %var,"MDA-MB-231 cells [1]; BA 15µM, 48h",-22.44%
same,Phe %var,"MDA-MB-231 cells [1]; BA 15µM, 48h",24.06%
same,Pro %var,"MDA-MB-231 cells [1]; BA 15µM, 48h",21.93%
same,Tau %var,"MDA-MB-231 cells [1]; BA 15µM, 48h",7.79%
same,Tyr %var,"MDA-MB-231 cells [1]; BA 15µM, 48h",28.53%
same,Val %var,"MDA-MB-231 cells [1]; BA 15µM, 48h",38.79%
same,myo-Ino %var,"MDA-MB-231 cells [1]; BA 15µM, 48h",-18.58%
same,number of intracellular polar metabolites consistently altered,"MDA-MB-231 cells [1]; BA 15µM, 48h",23
same,ATP %var,"MDA-MB-231 cells [1]; BA 15µM, 48h+24h",-15.36%
same,Acetate %var,"MDA-MB-231 cells [1]; BA 15µM, 48h+24h",22.70%
same,Ala %var,"MDA-MB-231 cells [1]; BA 15µM, 48h+24h",-12.62%
same,Asp %var,"MDA-MB-231 cells [1]; BA 15µM, 48h+24h",0%
same,Choline %var,"MDA-MB-231 cells [1]; BA 15µM, 48h+24h",0%
same,Citrate %var,"MDA-MB-231 cells [1]; BA 15µM, 48h+24h",-19.78%
same,Cr %var,"MDA-MB-231 cells [1]; BA 15µM, 48h+24h",0%
same,Fumarate %var,"MDA-MB-231 cells [1]; BA 15µM, 48h+24h",0%
same,GPC %var,"MDA-MB-231 cells [1]; BA 15µM, 48h+24h",0%
same,GSH %var,"MDA-MB-231 cells [1]; BA 15µM, 48h+24h",0%
same,Gln %var,"MDA-MB-231 cells [1]; BA 15µM, 48h+24h",-5.26%
same,Glu %var,"MDA-MB-231 cells [1]; BA 15µM, 48h+24h",-11.90%
same,Gly %var,"MDA-MB-231 cells [1]; BA 15µM, 48h+24h",-31.75%
same,Ile %var,"MDA-MB-231 cells [1]; BA 15µM, 48h+24h",0%
same,Lactate %var,"MDA-MB-231 cells [1]; BA 15µM, 48h+24h",0%
same,Leu %var,"MDA-MB-231 cells [1]; BA 15µM, 48h+24h",0%
same,PC %var,"MDA-MB-231 cells [1]; BA 15µM, 48h+24h",0%
same,PCr %var,"MDA-MB-231 cells [1]; BA 15µM, 48h+24h",-14.19%
same,Phe %var,"MDA-MB-231 cells [1]; BA 15µM, 48h+24h",0%
same,Pro %var,"MDA-MB-231 cells [1]; BA 15µM, 48h+24h",0%
same,Tau %var,"MDA-MB-231 cells [1]; BA 15µM, 48h+24h",0%
same,Tyr %var,"MDA-MB-231 cells [1]; BA 15µM, 48h+24h",0%
same,Val %var,"MDA-MB-231 cells [1]; BA 15µM, 48h+24h",0%
same,myo-Ino %var,"MDA-MB-231 cells [1]; BA 15µM, 48h+24h",-17.84%
same,lactate levels and expression of glycolytic enzymes,MDA-MB-231 cells [2],did not alter
